Test results from EP4696691A1, “TRICYCLIC COMPOUND, AND PREPARATION METHOD THEREFOR AND USE THEREOF” (Shanghai Huilun Pharmaceutical Co., Ltd., priority 2023, dated 2024).
Read-outs that look alike come from different tables or passages of the source.

Legend:
[1] = tested on: LPS induced IL-6 release in human PBMC cells; experiment: Inhibition of LPS induced IL-6 release in human PBMC cells (IL-6 HTRF assay); format: cell-based; conditions: 2 h compound pre-incubation, LPS 5 ng/mL for 4 h, IL-6 in supernatant
Description: I. Recovery and seeding of PBMC, and treatment of compounds (human PBMC cells were purchased from Oricell, item number: Fpb003F)
• 1. Preparation of compounds Sample dilutions of a series of concentrations were obtained by dilution in DMSO using Bravo, and then 80 nL was transferred into a cell plate using ECHO. The final concentration of DMSO in the cell culture medium is 0.1%. • 2. Frozen cells were quickly thawed in a 37°C water bath and stirred continuously. • 3. 25 mL of fresh preheated culture medium was added into a 50 mL centrifuge tube, and then the cells were added dropwise. Then the cells were centrifuged at 2,000 rpm for 10 min. • 4. […] The total number of cells required was calculated based on cell concentration to perform the assay. 7×10e4 cells were added per well (70 µL). • 6. The cell plate was placed and incubated in a 5% CO2 incubator at 37°C for 2 h.
• 1. LPS: A stock solution (1 mg/mL) was diluted in dH2O, aliquoted, and stored at -80°C. • 2. 8-fold LPS was added per well (10 µl/well) (with a final concentration of 5 ng/mL). The cells were incubated in a 5% CO2 incubator at 37°C for 4 h. • 3. 70 µl of supernatant was collected per well using Bravo, and then IL-6 HTRF assay was performed. The supernatant may be stored at -80°C.
1. Preparation of standards and sample dilutions. 2. 16 µL of each sample was taken using Bravo and added to wells. Then 16 µL of each standard was taken and added to corresponding wells. 3.4 µL of a premixed IL6 antibody working solution was added to each of all wells. 4. The cell plate was sealed and incubated at room temperature for 2 h. 5.

[2] = molecular target: T1, IRAK4-HiBiT fusion protein (Homo sapiens, UniProt Q9NWZ3); experiment: Detection of HiBiT-IRAK4 proteolysis levels in K562 IRAK4-HiBiT cells (Nano-Glo HiBiT Lytic assay); format: cell-based; conditions: 6 h incubation
T1 construct: K562 from ATCC
T1 sequence (Q9NWZ3 1-460): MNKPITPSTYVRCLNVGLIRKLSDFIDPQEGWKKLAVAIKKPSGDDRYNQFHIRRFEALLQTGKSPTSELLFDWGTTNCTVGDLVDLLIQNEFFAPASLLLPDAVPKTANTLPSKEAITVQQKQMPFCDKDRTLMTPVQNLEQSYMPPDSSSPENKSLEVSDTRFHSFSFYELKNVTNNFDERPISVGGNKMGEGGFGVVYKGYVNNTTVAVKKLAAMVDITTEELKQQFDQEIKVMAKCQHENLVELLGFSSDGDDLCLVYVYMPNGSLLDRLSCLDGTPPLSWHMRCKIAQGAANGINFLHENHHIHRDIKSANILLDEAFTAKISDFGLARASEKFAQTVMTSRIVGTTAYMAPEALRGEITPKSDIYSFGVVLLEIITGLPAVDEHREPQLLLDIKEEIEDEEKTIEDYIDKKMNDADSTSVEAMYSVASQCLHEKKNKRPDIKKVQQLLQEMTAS
Description: Test Example 1 Detection of HiBiT-IRAK4 proteolysis levels in K562 IRAK4-HiBiT cells co-incubated with compounds of the present application • Reagents, devices, and consumables in experiments: • Nano-Glo Lytic Detection Assay, purchased from Promega; • EnVision, purchased from PerkinElmer; • Name of cell line: K562 IRAK4-HiBiT stable transformation cell strain (capable of stably expressing IRAK4-HiBiT fusion protein), constructed by Shanghai Bioduro Biologics Co., Ltd., where a K562 cell strain was purchased from ATCC. The culture medium is IMDM+10% FBS+1% P/S (volume percentage, where FBS is fetal bovine serum and P/S is Penicillin-Streptomycin, a 1:1 mixture of penicillin and streptomycin antibiotic solution (10,000 units/mL)).
Cell culture: K562 IRAK4-HiBiT cells were incubated at 37°C, and passaged every 2-3 d, with a seeding density of 200,000 cells/mL.
IRAK4-HiBiT proteolysis experiment: • Step 1: Cell seeding and treatment of compound • 1. A 10 mM compound mother liquor was prepared using DMSO, and a compound solution with a working concentration of 1,000 times (the highest working concentration is 10 µM, diluted 3.162 times, with a total of 10 concentration gradients) was prepared using Bravo automatic liquid processing platform. • 2. 40 nL of a compound working solution was transferred to a 384 well plate, and an equal volume of DMSO was added to positive control wells. • 3. 20 µL of a culture solution was added per well and shaken for 10 min. • 4.20 µL of a K562 IRAK4-HiBiT cell suspension was added per well (6,000 cells/well), and an equal volume of culture medium was added to negative control wells. • 5. The well plate was rotated at 1,000 rpm for 1 min. • 6. The cells were incubated in a 5% CO2 incubator at 37°C for 2 h or 6 h. • Step 2: HiBiT Lytic experiment • 1. The well plate was placed at room temperature to equilibrate for 30 min. • 2. 20 µL of Nano-Glo HiBiT Lytic reagent (trade name: Nano-Glo® HiBiT Lytic Detection Reagent) and the well plate was kept in the dark. • 3. The well plate was placed on an orbital shaker at 300 rpm for 5 min. • 4. The cells were incubated at room temperature for 10 min. • 5. The luminous value was read by Envision. • 6. Data was calculated and processed. Degradation degree%=(negative control - experimental well)/(negative control - positive control) * 100%. Using XL-fit software, a degradation curve was obtained by fitting using a 4 Parameter Logistic Model, and the values of Relative DC50 (nM) and Absolute DC50 (nM) were obtained.

[3] = Pharmacokinetic behavior in mice (plasma concentration by LC-MS/MS); format: in vivo; conditions: mouse, plasma, male ICR mice; for Cmax: read-out: Cmax
Description: (§1) Three healthy ICR mice (SPF grade, from Beijing Vital River Laboratory Animal Technology Co., Ltd.), male, weighing 18-25 g, were intravenously injected with a compound (1 mg/kg) at a volume of 5 mL/kg. The compound was prepared using 5% DMSO+10% Solutol+85% Saline (w/v), and the animals were not fasted before the experiment.
as §1, with “were intragastrically administered” for “were intravenously injected with”, “compound (5” for “compound (1”, “of 10” for “of 5”
Blood samples (about 0.05 mL each) were collected from the cheeks at 5 min, 15 min, 30 min, 1 h, 2 h, 4 h, 6 h, 8 h, and 24 h after intravenous administration, and at 5 min, 15 min, 30 min, 1 h, 2 h, 4 h, 6 h, 8 h, and 24 h after intragastrical administration, and anticoagulated with heparin sodium. Following collection, the blood samples were placed on ice and the plasma was centrifuged within 1 h (centrifugation conditions: 6,000 g, 3 min, 2 °C to 8°C). The concentration of the compounds in the plasma was determined by liquid chromatography tandem mass spectrometry. The plasma samples were stored in a -80°C freezer before analysis. With plasma concentration data at different time points, pharmacokinetic parameters were calculated by Phoenix WinNonlin8.2.0, and the results are shown in Table 4: Table 4

[4] = po, Intragastric administration (5 mg/kg)
[5] = Intravenous injection (1 mg/kg)

COc1cc2nn([C@H]3CC[C@H](CCN4CCC5(CC4)OCc4cc(C6CCC(=O)NC6=O)ccc45)CC3)cc2cc1C(=O)Nc1cccc(C(F)(F)F)n1 (stereo partly drawn) [Compound 96]
IC50 [1]: 0.23 nM
Dmax [2]: 97%
DC50 ([2]; read-out: Absolute DC50): 0.48 nM
DC50 ([2]; read-out: Relative DC50): 0.44 nM
AUC(0-t) [3, 4]: 3640 ng·h/mL
bioavailability [3, 4]: 35.4%
half-life [3, 4]: 14.7 h
Cmax [3, 4]: 239 ng/mL
AUC(0-t) [3, 5]: 2060 ng·h/mL
clearance [3, 5]: 4.59 mL/min/kg
Cmax [3, 5]: 243 ng/mL
Vd ([3]; Intravenous injection (1 mg/kg), read-out: Vss): 7.97 L/kg
